Patent publication US11427548B2 (Arvinas Operations, Inc., priority 2015, dated 2022)
Like-named read-outs stand apart in the source and are kept apart here.

Target: T1, Androgen Receptor (Homo sapiens, UniProt P10275)
T1 construct: endogenous in cells; host or cells: VCaP cells
T1 sequence (P10275 1-920): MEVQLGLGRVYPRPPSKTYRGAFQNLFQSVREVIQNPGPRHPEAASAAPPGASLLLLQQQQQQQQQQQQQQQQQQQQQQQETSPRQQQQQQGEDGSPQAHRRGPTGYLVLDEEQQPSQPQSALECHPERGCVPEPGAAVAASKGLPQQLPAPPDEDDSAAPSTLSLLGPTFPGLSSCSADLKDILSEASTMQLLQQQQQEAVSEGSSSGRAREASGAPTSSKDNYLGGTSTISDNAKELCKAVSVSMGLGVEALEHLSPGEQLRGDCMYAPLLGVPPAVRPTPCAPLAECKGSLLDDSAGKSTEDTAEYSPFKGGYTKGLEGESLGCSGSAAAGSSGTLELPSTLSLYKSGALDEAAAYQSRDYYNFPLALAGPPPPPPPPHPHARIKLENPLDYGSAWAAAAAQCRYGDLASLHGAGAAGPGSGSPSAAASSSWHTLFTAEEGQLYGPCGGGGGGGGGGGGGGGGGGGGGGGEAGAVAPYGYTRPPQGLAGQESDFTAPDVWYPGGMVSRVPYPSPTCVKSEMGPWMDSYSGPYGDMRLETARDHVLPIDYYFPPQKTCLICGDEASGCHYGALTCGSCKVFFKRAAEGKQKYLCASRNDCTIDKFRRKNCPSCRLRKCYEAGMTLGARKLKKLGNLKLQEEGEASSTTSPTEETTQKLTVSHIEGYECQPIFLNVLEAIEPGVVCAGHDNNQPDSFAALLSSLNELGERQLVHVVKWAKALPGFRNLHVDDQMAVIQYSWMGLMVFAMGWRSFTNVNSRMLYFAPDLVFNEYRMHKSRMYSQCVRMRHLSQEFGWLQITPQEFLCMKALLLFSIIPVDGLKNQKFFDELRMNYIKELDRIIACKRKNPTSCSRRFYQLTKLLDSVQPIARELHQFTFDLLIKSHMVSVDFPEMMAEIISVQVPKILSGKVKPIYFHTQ
Experiment: Androgen Receptor ELISA assay (PathScan AR ELISA) in VCaP cells: AR degradation, Dmax and DC50
Format: cell-based
In short: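 VCaP cells, 30,000/well, grown ≥3 days in phenol red-free RPMI with 5% charcoal-stripped FBS; compound added in 0.1% DMSO with 0.1 nM R1881, 7 half-log doses, 24 h. Lysate AR quantified by PathScan sandwich ELISA, HRP/TMB read at 450 nm, giving DC50 and Dmax.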

[1] = VCaP cells; Table 36; read-out: VCaP DC50
[2] = VCaP, VCaP cells; Table 36; read-out: VCaP Dmax (%)
[3] = VCaP, read-out: VCaP Dmax (%), VCaP cells; Table 36
[4] = VCaP cells; Table 35; read-out: VCaP DC50
[5] = VCaP, VCaP cells; Table 35; read-out: VCaP Dmax (%)
[6] = read-out: VCaP DC50; VCaP cells; Table 36

In the case of `Cc1ncsc1-c1ccc([C@H](C)NC(=O)[C@@H]2C[C@@H](O)CN2C(=O)[C@@H](NC(=O)CCCCCCCCCc2ccc(C(=O)N[C@H]3C(C)(C)[C@H](Oc4ccc(C#N)c(Cl)c4)C3(C)C)cc2)C(C)(C)C)cc1` [Example 764, (2S,4R)-1-((S)-2-(10-(4-(((1r,3r)-3-(3-chloro-4-cyanophenoxy)-2,2,4,4-tetramethylcyclobutyl)carbamoyl)phenyl)decan-amido)-3,3-dimethylbutanoyl)-4-hydroxy-N-((S)-1-(4-(4-methylthiazol-5-yl)phenyl)ethyl)pyrrolidine-2-carboxamide], the DC50 [1] is reported as 0.051 to 0.5 µM and the Dmax [2] is reported as 51 to 70%.

In the case of `Cc1ncsc1-c1ccc([C@H](C)NC(=O)[C@@H]2C[C@@H](O)CN2C(=O)[C@@H](NC(=O)CCCCCCCc2ccc(C(=O)N[C@H]3C(C)(C)[C@H](Oc4ccc(C#N)c(Cl)c4)C3(C)C)cc2)C(C)(C)C)cc1` [Example 763, (2S,4R)-1-((S)-2-(8-(4-(((1r,3r)-3-(3-chloro-4-cyanophenoxy)-2,2,4,4-tetramethylcyclobutyl)carbamoyl)phenyl)octan-amido)-3,3-dimethylbutanoyl)-4-hydroxy-N-((S)-1-(4-(4-methylthiazol-5-yl)phenyl)ethyl)pyrrolidine-2-carboxamide], the DC50 [1] is reported as under 0.05 µM and the Dmax [2] is reported as over 71%.

In the case of `Cc1ncsc1-c1ccc(CNC(=O)[C@@H]2C[C@@H](O)CN2C(=O)[C@@H](NC(=O)COCCCOCCCCCOc2ccc(N3C(=S)N(c4ccc(C#N)c(C(F)(F)F)c4)C(=O)C3(C)C)cc2)C(C)(C)C)nc1` [Example 453], the Dmax (VCaP, read-out: VCaP Dmax (%)) is reported as under 25% and the DC50 (read-out: VCaP DC50; VCaP cells; Table 35) is reported as over 0.501 µM.

Work on `CCO/N=C(\CCCCC(=O)N[C@H](C(=O)N1C[C@H](O)C[C@H]1C(=O)N[C@@H](C)c1ccc(-c2scnc2C)cc1)C(C)(C)C)CCCc1ccc(C(=O)N[C@H]2C(C)(C)[C@H](Oc3ccc(C#N)c(Cl)c3)C2(C)C)nc1` [Example 695, N-((1r,3r)-3-(3-chloro-4-cyanophenoxy)-2,2,4,4-tetramethylcyclobutyl)-5-((E)-4-(ethoxyimino)-9-(((S)-1-((2S,4R)-4-hydroxy-2-(((S)-1-(4-(4-methylthiazol-5-yl)phenyl)ethyl)carbam-oyl)pyrrolidin-1-yl)-3,3-dimethyl-1-oxobutan-2-yl)amino)-9-oxononyl)picolinamide] yielded a DC50 [1] of 0.051 to 0.5 µM and a Dmax [2] of 51 to 70%.

`Cc1ncsc1-c1ccc([C@H](C)NC(=O)[C@@H]2C[C@@H](O)CN2C(=O)[C@H](NC(=O)CN2CCN(CCCc3ccc(C(=O)N[C@H]4C(C)(C)[C@H](Oc5ccc(C#N)c(C#N)c5)C4(C)C)cc3)CC2)C2COC2)cc1` [Example 745, (2S,4R)-1-((R)-2-(2-(4-(3-(4-(((1r,3r)-3-(3,4-dicyanophenoxy)-2,2,4,4-tetramethylcyclobutyl)carbamoyl)phenyl)propyl)piperazin-1-yl)acetamido)-2-(oxetan-3-yl)acetyl)-4-hydroxy-N-((S)-1-(4-(4-methylthiazol-5-yl)phenyl)ethyl)pyrrolidine-2-carboxamide] was tested, and the DC50 [1] was over 0.501 µM and the Dmax [3] was under 25%.

In the case of `Cc1ncsc1-c1ccc(C(CO)NC(=O)[C@@H]2C[C@@H](O)CN2C(=O)[C@@H](NC(=O)CCCN2CCN(c3ccc(C(=O)N[C@H]4C(C)(C)[C@H](Oc5ccc(C#N)c(Cl)c5)C4(C)C)cn3)CC2)C(C)(C)C)cc1` (stereo partly drawn) [Example 781, N-((1r,3r)-3-(3-chloro-4-cyanophenoxy)-2,2,4,4-tetramethylcyclobutyl)-6-(4-(4-(((S)-1-((2S,4R)-4-hydroxy-2-(((R)-2-hydroxy-1-(4-(4-methylthiazol-5-yl)phenyl)ethyl)carbamoyl)pyrrolidin-1-yl)-3,3-dimethyl-1-oxobutan-2-yl)amino)-4-oxobutyl)piperazin-1-yl)nicotinamide], the DC50 [1] is reported as over 0.501 µM and the Dmax [2] is reported as 26 to 50%.

In the case of `Cc1ncsc1-c1ccc([C@H](C)NC(=O)[C@@H]2C[C@@H](O)CN2C(=O)[C@@H](NC(=O)COCCCCCNc2ccc(C(=O)N[C@H]3C(C)(C)[C@H](Oc4ccc(C#N)c(Cl)c4)C3(C)C)c(F)c2)C(C)(C)C)cc1` [Example 495], the DC50 [4] is reported as over 0.501 µM and the Dmax [5] is reported as 26 to 50%.

`Cc1ncsc1-c1ccc(CNC(=O)[C@@H]2C[C@@H](O)CN2C(=O)[C@H](C(C)C)n2cc(Oc3cccc(OCCCCCOc4ccc(N5C(=S)N(c6ccc(C#N)c(C(F)(F)F)c6)C(=O)C5(C)C)cc4)c3)cn2)cc1` [Example 601, (2S,4R)-1-((S)-2-(4-(3-((5-(4-(3-(4-cyano-3-(trifluoromethyl)phenyl)-5,5-dimethyl-4-oxo-2-thioxoimidazolidin-1-yl)phenoxy)pentyl)oxy)phenoxy)-1H-pyrazol-1-yl)-3-methylbutanoyl)-4-hydroxy-N-(4-(4-methylthiazol-5-yl)benzyl)pyrrolidine-2-carboxamide] gave a Dmax (VCaP, read-out: VCaP Dmax (%)) of under 25% and a DC50 [6] of over 0.501 µM.

`Cc1ncsc1-c1ccc([C@H](C)NC(=O)[C@@H]2C[C@@H](OC(=O)OC(C)C)CN2C(=O)[C@@H](NC(=O)COCCCCCNc2ccc(C(=O)N[C@H]3C(C)(C)[C@H](Oc4ccc(C#N)c(Cl)c4)C3(C)C)cc2)C(C)(C)C)cc1` [Example 652, (3R,5S)-1-((S)-2-(2-((5-((4-(((1r,3r)-3-(3-chloro-4-cyanophenoxy)-2,2,4,4-tetramethylcyclobutyl)carbamoyl)phenyl)amino)pentyl)oxy)acetamido)-3,3-dimethylbutanoyl)-5-(((S)-1-(4-(4-methylthiazol-5-yl)phenyl)ethyl)carbam-oyl)pyrrolidin-3-yl isopropyl carbonate] showed a DC50 [1] of over 0.501 µM and a Dmax [2] of under 25%.

`Cc1ncsc1-c1ccc([C@H](C)NC(=O)[C@@H]2C[C@@H](O)CN2C(=O)C(C(C)C)n2cnc(-c3ccnc(N4CC[C@H](Oc5ccc(N6C(=S)N(c7ccc(C#N)c(C(F)(F)F)c7)C(=O)C6(C)C)cc5)C4)c3)c2)cc1` (some centres unmarked) [Example 617, 1-(2-(4-(2-(3-(4-(3-(4-cyano-3-(trifluoromethyl)phenyl)-5,5-dimethyl-4-oxo-2-thioxoimidazolidin-1-yl)phenoxy)pyrrolidin-1-yl)pyridin-4-yl)-1H-imidazol-1-yl)-3-methylbutanoyl)-4-hydroxy-N-(1-(4-(4-methylthiazol-5-yl)phenyl)ethyl)pyrrolidine-2-carboxamide] gave a Dmax (VCaP, read-out: VCaP Dmax (%)) of under 25% and a DC50 [6] of over 0.501 µM.

`Cc1ncsc1-c1ccc(CNC(=O)[C@@H]2C[C@H](O)CN2C(=O)[C@@H](NC(=O)COCCOc2ccc(-c3ccc(C(=O)N[C@H]4C(C)(C)[C@H](Oc5ccc(C#N)c(Cl)c5)C4(C)C)cc3)cc2)C(C)(C)C)cc1` [Example 481] showed a DC50 [4] of over 0.501 µM and a Dmax [5] of under 25%.

`Cc1ncsc1-c1ccc([C@H](C)NC(=O)[C@@H]2C[C@@H](O)CN2C(=O)[C@@H](C(C)C)n2cc(OCC3CCN(c4ccc(C(=O)N[C@H]5C(C)(C)[C@H](Oc6ccc(C#N)c(Cl)c6)C5(C)C)cc4)CC3)cn2)cc1` [Example 436] gave a DC50 [4] of over 0.501 µM and a Dmax [5] of 51 to 70%.

`Cc1ncsc1-c1ccc(CNC(=O)[C@@H]2C[C@@H](O)CN2C(=O)[C@@H](NC(=O)CN2CCC(OCCOc3ccc(C(=O)N[C@H]4C(C)(C)[C@H](Oc5ccc(C#N)c(C(F)(F)F)c5)C4(C)C)cc3)CC2)C(C)(C)C)cc1` [Example 640, (2S,4R)-1-((S)-2-(2-(4-(2-(4-(((1r,3r)-3-(4-cyano-3-(trifluorometh-yl)phenoxy)-2,2,4,4-tetramethylcyclobutyl)carbamoyl)phenoxy)eth-oxy)piperidin-1-yl)acetamido)-3,3-dimethylbutanoyl)-4-hydroxy-N-(4-(4-methylthiazol-5-yl)benzyl)pyrrolidine-2-carboxamide] was tested, and the DC50 [1] was under 0.05 µM and the Dmax [3] was over 71%.

`Cc1ncsc1-c1ccc([C@H](C)NC(=O)[C@@H]2C[C@@H](O)CN2C(=O)[C@@H](NC(=O)COCCN(C)CCCc2ccc(C(=O)N[C@H]3C(C)(C)[C@H](Oc4ccc(C#N)c(Cl)c4)C3(C)C)nc2)C(C)(C)C)cc1` [Example 678, N-((1r,3r)-3-(3-chloro-4-cyanophenoxy)-2,2,4,4-tetramethylcyclobutyl)-5-(3-((2-(2-(((S)-1-((2S,4R)-4-hydroxy-2-(((S)-1-(4-(4-methylthiazol-5-yl)phenyl)ethyl)carbam-oyl)pyrrolidin-1-yl)-3,3-dimethyl-1-oxobutan-2-yl)amino)-2-oxoethoxy)ethyl)(meth-yl)amino)propyl)picolin-amide] was tested, and the DC50 [1] was over 0.501 µM.

`CC(C)[C@H](NC(=O)COCCCOCCCCOc1ccc(N2C(=S)N(c3ccc(C#N)c(Cl)c3)C(=O)C2(C)C)cc1)C(=O)N1C[C@H](O)C[C@H]1C(=O)NCc1ccc(-c2cncs2)cc1` [Example 36] was tested, and the Dmax (VCaP, read-out: VCaP Dmax (%)) was 26 to 50% and the DC50 (read-out: VCaP DC50; concentration that caused 50% Androgen Receptor degradation, VCaP cells) was under 0.05 µM.
